Source: article PMC9633101 (Science signaling, 2022)

What follows are molecules tested against T1, TRPL (TRPL::EGFP) (Drosophila melanogaster, UniProt P48994) (assay: Fura-2 Ca2+ imaging, S2 cells).
T1 sequence (P48994 1-1124): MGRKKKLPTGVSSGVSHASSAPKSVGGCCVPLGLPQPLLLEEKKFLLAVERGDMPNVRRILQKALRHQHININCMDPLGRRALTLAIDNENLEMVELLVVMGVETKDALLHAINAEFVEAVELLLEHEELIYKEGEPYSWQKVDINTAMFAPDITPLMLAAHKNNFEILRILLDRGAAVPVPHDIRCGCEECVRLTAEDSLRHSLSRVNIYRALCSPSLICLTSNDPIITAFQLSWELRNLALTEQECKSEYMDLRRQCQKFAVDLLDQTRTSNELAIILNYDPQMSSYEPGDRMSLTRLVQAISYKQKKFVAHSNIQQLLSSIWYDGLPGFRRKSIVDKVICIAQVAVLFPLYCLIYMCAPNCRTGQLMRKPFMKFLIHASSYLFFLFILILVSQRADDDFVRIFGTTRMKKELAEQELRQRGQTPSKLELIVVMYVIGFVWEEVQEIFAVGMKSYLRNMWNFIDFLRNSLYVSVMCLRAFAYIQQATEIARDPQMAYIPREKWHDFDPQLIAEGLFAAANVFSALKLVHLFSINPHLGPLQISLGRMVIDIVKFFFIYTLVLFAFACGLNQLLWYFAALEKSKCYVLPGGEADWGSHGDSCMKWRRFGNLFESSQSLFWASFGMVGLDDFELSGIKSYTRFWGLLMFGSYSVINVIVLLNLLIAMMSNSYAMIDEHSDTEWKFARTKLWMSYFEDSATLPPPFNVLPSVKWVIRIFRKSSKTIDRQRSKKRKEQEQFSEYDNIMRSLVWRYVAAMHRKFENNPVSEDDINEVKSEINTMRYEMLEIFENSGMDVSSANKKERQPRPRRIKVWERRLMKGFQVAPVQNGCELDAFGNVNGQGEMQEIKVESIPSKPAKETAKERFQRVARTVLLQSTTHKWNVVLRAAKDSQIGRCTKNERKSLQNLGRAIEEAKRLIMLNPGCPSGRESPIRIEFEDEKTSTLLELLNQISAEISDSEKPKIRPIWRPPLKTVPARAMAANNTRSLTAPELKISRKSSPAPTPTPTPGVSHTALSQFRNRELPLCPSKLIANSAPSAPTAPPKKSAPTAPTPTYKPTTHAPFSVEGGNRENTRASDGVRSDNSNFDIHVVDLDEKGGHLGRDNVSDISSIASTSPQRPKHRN
Assay type: cell-based

Compound	EC50 [µM]
CCCCC/C=C\C/C=C\CCCCCCCC(=O)NCCO [LEA, linoleoyl ethanolamide]	7.04
CCCCC/C=C\C/C=C\CCCCCCCC(=O)NCC(=O)O [LinGly, linoleoyl glycine]	2.99
CCCCC/C=C\C/C=C\CCCCCCCC(=O)OC(CO)CO [2-LG, 2-linoleoyl glycerol]	5.23
